Assays:
Type in all cases: in vivo
[1] = test system: Wild Oats; assay: Pre-emergent control of seed germination, soil drench; settings: wild oats
Text: (§1) Four parts by weight of the compound, 0.08 part of sorbitan trioleate (Span 85), and 0.02 part of a sorbitan monooleate polyoxyethylene derivative (Tween 80) are dipersed in 40 milliliters of acetone to produce a concentrate composition in the form of a water-dispersible liquid containing the predetermined oxirane compound as the sole active agent.
(§2) A portion of each of these concentrate compositions were separately dispersed in portions of water to provide aqueous compositions, containing 0.44 pound of the oxirane compound per 100 gallons of ultimate aqueous mixture.
(§3) The aqueous compositions were then employed for the treatment of seed beds of good agricultural soil which had been prepared and seeded with the seeds of various grass species and broadleaf plants. The grass species included white winter wheat, cultured rice, pigweeds, crabgrass, cheat grass, wild oats, Johnson grass, barnyard grass and yellow foxtail; and the broadleaf plants included corn. In the treating operations, a predetermined quantity of each of the compositions was applied to separate seedbeds as a soil drench at a rate of about 0.43 acre inch of aqueous composition per acre. The quantities were controlled to supply a substantial uniform dosage in a seedbed equivalent to 1.0, 2.0 and 5.0 pounds of the oxirane compound per acre. These dosages correspond, respectively, to a concentration, within the soil depth penetrated of about 1.6, 3.2 and 8.0 parts by weight of the oxirane compound per million parts by weight of soil. Other seedbeds were similarly seeded with the named plant species but were left untreated to serve as checks.
(§4) After about 2 weeks the seedbeds were examined to ascertain what control of the growth of seeds had been obtained.
(§5) were prepared as in Example 32 and similarly employed for the pre-emergencetreatment of various plant species.
(§6) An aqueous composition containing 2-(α,α,α -trifluoro-m-tolyl)-2-(2,2,2-trichloroethyl)oxirane was prepared as described in Example 32. The composition was then employed according to the procedures of Example 32 except that lower concentrations of the oxirane compound were employed in the composition.
(§7) The percent control of the various plant species at the employed dosage rate of the 2-(α,α,α-trifluoro-m-tolyl)- 2-(2,2,2-trichloroethyl) supplied by the composition is set forth in the following Table IV.

[2] = test system: Yellow Foxtail; assay: as above; settings: yellow foxtail
Text: as §1, §2, §3, §4, §5, §6, §7

[3] = test system: Barnyard Grass; assay: as above; settings: barnyard grass
Text: as §1, §2, §3, §4, §5, §6, §7

[4] = test system: Johnson Grass; assay: as above; settings: for pre-emergence control: Johnson grass; for % Control: pre-emergence, Johnson Grass
Text: as §1, §2, §3, §4, §5
(§8) Separate aqueous compositions containing the 2-(m-chlorophenyl)-2-(2,2,2-trichloroethyl)oxirane (Cmpd. A) and 2-(m-bromophenyl)-2-(2,2,2-trichloroethyl)oxirane (Cmpd. C) compounds of the present invention were prepared as in Example 32 for comparative per-emergence herbicide tests against noxious grass species with the known 2 -(p-chlorophenyl)-2-(2,2,2-trichloroethyl)oxirane (Cmpd. B) compound and 2-(p-bromophenyl)-2-(2,2,2-trichloroethyl)oxirane (Cmpd. D). The pre-emergence tests were conducted in Example 32 and the results of such tests are set forth below in Table III.
as §6, §7

[5] = test system: Crabgrass; assay: as above; settings: for pre-emergence control: crabgrass; for % Control: pre-emergence, Crab Grass
Text: as §1, §2, §3, §4, §5, §8, §6, §7

[6] = test system: Pigweeds; assay: as above; settings: pigweeds, 2.0 pounds per acre
Text: as §1, §2, §3, §4, §5, §6, §7

[7] = test system: Water-Grass; assay: Comparative pre-emergence herbicide test
Text: as §1, §2, §3, §4, §8

[8] = 0.25 to 0.5 pounds per acre, respectively

Row | Structure (SMILES) | pre-emergence control ([1]; 2.0 pounds per acre) | pre-emergence control ([3]; 2.0 pounds per acre) | pre-emergence control [6] | pre-emergence control ([4]; 2.0 pounds per acre) | pre-emergence control ([5]; 2.0 pounds per acre) | % Control ([7]; 1/8 Lb/Acre) | % Control ([7]; 1/16 Lb/Acre) | % Control ([4]; 1/8 Lb/Acre) | % Control ([4]; 1/16 Lb/Acre) | % Control ([5]; 1/8 Lb/Acre) | % Control ([5]; 1/16 Lb/Acre) | further results
1 | Fc1cccc(C2(CC(Cl)(Cl)Cl)CO2)c1 (stereo not shown) [Example 19, 2-(m-fluorophenyl)-2-(2,2,2-trichloroethyl)oxirane] | – | – | – | – | – | – | – | – | – | – | – | pre-emergence control [1, 8]: Substantially complete pre-emergence control; pre-emergence control [2, 8]: Substantially complete pre-emergence control; pre-emergence control [3, 8]: Substantially complete pre-emergence control; pre-emergence control [4, 8]: Substantially complete pre-emergence control; pre-emergence control [5, 8]: Substantially complete pre-emergence control
2 | Cc1cccc(C2(CC(Cl)(Cl)Cl)CO2)c1 (stereo not shown) [Example 9, 2-(m-tolyl)-2-(2,2,2-trichloroethyl)oxirane] | substantially complete control | substantially complete control | substantially complete control | substantially complete control | substantially complete control | – | – | – | – | – | – | pre-emergence control ([2]; 2.0 pounds per acre): substantially complete control
3 | Clc1cccc(C2(CC(Cl)(Cl)Cl)CO2)c1 (stereo not shown) [Example 7, 2-(m-chlorophenyl)-2-(2,2,2-trichloroethyl)oxirane] | – | – | – | – | – | 90% | 85% | 100% | 100% | 100% | 100% | pre-emergence control [1, 8]: Substantially complete pre-emergence control; pre-emergence control [2, 8]: Substantially complete pre-emergence control; pre-emergence control [3, 8]: Substantially complete pre-emergence control; pre-emergence control [4, 8]: Substantially complete pre-emergence control; pre-emergence control [5, 8]: Substantially complete pre-emergence control
4 | CCOc1cccc(C2(CC(Cl)(Cl)Cl)CO2)c1 (stereo not shown) [Example 14, 2-(m-ethoxyphenyl)-2-(2,2,2-trichloroethyl)oxirane] | substantially complete control | substantially complete control | – | substantially complete control | substantially complete control | – | – | – | – | – | – | –
5 | Clc1ccc(C2(CC(Cl)(Cl)Cl)CO2)cc1Cl (stereo not shown) [Example 5, 2-(3,4-dichlorophenyl)-2-(2,2,2-trichloroethyl)oxirane] | substantially complete control | – | substantially complete control | substantially complete control | substantially complete control | – | – | – | – | – | – | –
6 | ClC(Cl)(Cl)CC1(c2ccc(Br)cc2)CO1 (stereo not shown) [Cmpd. D, 2-(p-bromophenyl)-2-(2,2,2-trichloroethyl)oxirane, reference compound] | – | – | – | – | – | 60% | 30% | 25% | 0% | 0% | 0% | –
7 | COc1cccc(C2(CC(Cl)(Cl)Cl)CO2)c1 (stereo not shown) [Example 12, 2-(m-methoxyphenyl)-2-(2,2,2-trichloroethyl)oxirane] | – | substantially complete pre-emergence control | substantially complete pre-emergence control | substantially complete pre-emergence control | substantially complete pre-emergence control | – | – | – | – | – | – | –
8 | Clc1ccc(C2(CC(Cl)(Cl)Cl)CO2)cc1 (stereo not shown) [Cmpd. B, 2-(p-chlorophenyl)-2-(2,2,2-trichloroethyl)oxirane, reference compound] | – | – | – | – | – | 90% | 60% | 30% | 0% | 20% | 0% | –

— US4018801A, “Substituted oxirane compounds” (The Dow Chemical Company, priority 1975, dated 1977)
